Data as given in patent publication EP0813871A1, “Berberine derivates for inhibiting production of HSP47” (Kureha Chemical Industry Co., Ltd., priority 1996, dated 1997).
Structures can show the parent of a compound that is named as a salt.

Assays:
HSP47 = assay: Inhibition of HSP47 production in heat-shocked human cancer cell lines (Western blotting); type: cell-based; settings: Western blot, 20 µM
Procedure: The following various human cancer cell lines were cultured under 5% CO2, at 37 °C, except for the heat shock treatment period. The lung cancer cell line H69 (ATCC HTB 119), the stomach cancer cell line KATO III (ATCC HTB 103), the colon cancer cell line COLO 205 (ATCC CCL 222), and the prostate cancer cell line DU145 (ATCC HTB 81) were cultured in an RPMI1640 medium containing 10% inactivated FBS.
The breast cancer cell line MCF7 (ATCC HTB 22) was cultured in an RPMI1640 medium containing 10^-8 M β-estradiol and 10% inactivated FBS.
The kidney cancer cell line ACHN (ATCC CRL 1611) was cultured in an MEM medium containing 10% inactivated FBS.
The berberine hydrochloride of the formula (III) (the final concentration = 20 µM: Matsuura Yakugyo) was added to each medium of the above human cancer cell lines 2 days after the inoculation. After the berberine hydrochloride treatment for 24 hours, a heat shock was applied at 45 °C for 15 minutes, and the cells were then cultured at 37 °C overnight. The control tests were carried out by performing the above procedures except that the berberine hydrochloride was not added.
The cells treated in the above (2) were homogenized, and the amounts of HSP47 produced were measured by the Western blotting method.
The cells treated in the above (2) were washed with PBS(-), and 1 ml of lysis buffer [1.0% NP-40, 0.15 M sodium chloride, 50 mM Tris-HCl (pH 8.0), 5 mM-EDTA, 2 mM-N-ethylmaleimide, 2 mM phenylmethylsulfonyl fluoride, 2 µg/ml leupeptin, and 2 µg/ml pepstatin] was added. The whole was allowed to stand for 20 minutes on ice, and then centrifuged at 4 °C and 12000 rpm for 20 minutes. The resulting supernatant (10 µl) was added to 790 µl of PBS(-), and then 200 µl of a protein assay dye reagent solution (Dye Reagent Concentrate: Bio-Rad Laboratories, Catalogue No. 500-0006) was added. The whole was allowed to stand at room temperature for 5 minutes, and the absorbance at 595 nm was measured to determine the amounts of proteins.
For the SDS-polyacrylamide gel electrophoresis (SDS-PAGE) of the samples, the protein concentration of which were measured, aliquots containing the same amount of protein were loaded onto the gel. The SDS-PAGE was performed according to the Laemmli method. After the electrophoresis, the blotting and then blocking were carried out in accordance with the methods described in Example 1. More particularly, the gel was brought into contact with a 0.45 µm nitrocellulose membrane (Schleicher & Schuell, Catalogue No. 401196) at room temperature and 100 V, using a protein-transferring apparatus (Trans-Blot Electrophoretic Transfer Cell: Bio-Rad), and blotting was carried out for 3 hours. The blotting buffer used was same as that used in Example 1 (3). After blotting, the nitrocellulose membrane was incubated in a 10% skimmed milk-PBS(-) solution at room temperature for 30 minutes, to block non-specific bindings.
After blocking, the first antibody reaction was carried out on the nitrocellulose membrane, using a screener blotter (Sanplatec), and the anti-human-HSP47 rat polyclonal antibody prepared in Example 1. Thereafter, the nitrocellulose membrane was washed with two fresh PBS(-) solutions for 5 minutes, using a slow rocking shaker, and then with four fresh PBS(-)-0.1% Tween 20 (Bio-Rad, Catalogue No. 170-6531) solutions for 15 minutes, and finally, with two fresh PBS(-) solutions for 5 minutes.
After washing, the second antibody reaction was carried out for 2 hours, using 5 ml of a solution prepared by diluting a peroxidase-labeled goat anti-rat IgG antibody (Southern Biotechnology, Catalogue No. 3030-05) 5000-fold with a PBS(-) solution containing 2% skimmed milk. After the reaction, the nitrocellulose membrane was washed with two fresh PBS(-) solutions for 5 minutes, and with five fresh PBS(-)-0.1% Tween 20 solutions for 15 minutes, using a slow rocking shaker, and finally, with two fresh PBS(-) solutions for 5 minutes. […]

mice = settings: P. acnes intraperitoneally, lipopolysaccharide intraperitoneally 7 days later; cited from earlier work
[1] = agent containing berberine as an active ingredient; cited from earlier work

| Compound | band of the molecular weight of approximately 47 kDa (HSP47; breast cancer cell line MCF7) | band of the molecular weight of approximately 47 kDa (HSP47; colon cancer cell line COLO 205) | band of the molecular weight of approximately 47 kDa (HSP47; kidney cancer cell line ACHN, in comparison with the control tests) | band of the molecular weight of approximately 47 kDa (HSP47; lung cancer cell line H69) | band of the molecular weight of approximately 47 kDa (HSP47; prostate cancer cell line DU145) | band of the molecular weight of approximately 47 kDa (HSP47; stomach cancer cell line KATO III) | survival rate of mice (mice) | anti-GEM (glomerular basement membrane) nephritis [1] |
| --- | --- | --- | --- | --- | --- | --- | --- | --- |
| COc1ccc2cc3[n+](cc2c1OC)CCc1cc2c(cc1-3)OCO2 [berberine hydrochloride] | no band of the molecular weight of approximately 47 kDa was detected | no band of the molecular weight of approximately 47 kDa was detected | faint | no band of the molecular weight of approximately 47 kDa was detected | no band of the molecular weight of approximately 47 kDa was detected | no band of the molecular weight of approximately 47 kDa was detected |  |  |
| COc1ccc2cc3[n+](cc2c1OC)CCc1cc2c(cc1-3)OCO2 [berberine] |  |  |  |  |  |  | effectively improved | effectively improved |
